# US7678913B2, “Ureas as factor Xa inhibitors” (Portola Pharmaceuticals, Inc., priority 2004, dated 2010)
# Target: T1, human plasma protein factor Xa (Homo sapiens, UniProt P00742)
# T1 construct: measure proteolytic activity of the enzyme (factor Xa); purchased Haematologic Technologies (Essex Junction, Vt.); host or cells: human plasma
# Test: Factor Xa IC50 determination (cleavage of chromogenic substrate S-2765)
# Format: biochemical
# Settings: fXa 1 nM, S-2765 100 μM, Tris buffered saline pH 7.4, room temperature
# From the text: This example illustrates methods for evaluating the compounds of the invention, along with results obtained for such assays. The in vitro and in vivo Factor Xa isoform activities of the inventive compounds can be determined by various procedures known in the art, such as a test for their ability to inhibit the activity of the Factor Xa isoform. […] The IC50 value is the concentration (in nM) of the compound required to provide 50% inhibition of Factor Xa isoform.
# An in vitro assay for detecting and measuring inhibition activity against Factor Xa is as follows:
# • The substrate S-2765 (Z-D-Arg-Gly-Arg-pNA.HCl) was obtained from Diapharma (West Chester, Ohio). Enzyme: • The human plasma protein factor Xa was purchased from Haematologic Technologies (Essex Junction, Vt.). Methods
# All assays, which are performed in 96-well microtiter plates, measure proteolytic activity of the enzyme (factor Xa) by following cleavage of paranitroanilide substrate. The assay buffer used for proteolytic assays was Tris buffered saline (20 mM Tris, 150 mM NaCl, 5 mM CaCl2, 0.1% Bovine serum albumin (BSA), 5% Dimethly Sulfoxide (DMSO) pH 7.4). In a 96-well microtiter plate, inhibitor was serially diluted to give a range of concentrations from 0.01 nM to 10 μM (final). Duplicate sets of wells were assayed and control wells without inhibitor were included. Enzyme was added to each well,(fXa concentration=1nM), the plate was shaken for 5 seconds and then incubated for 5 minutes at room temperature. S2765 was added (100 μM final) and the plate was shaken for 5 seconds (final liquid volume in each well was 200 μl). The degree of substrate hydrolysis was measured at 405 nm on a Thermomax plate reader (Molecular Devices, Sunnyvale, Calif.) for 2 minutes. The initial velocities (mOD/min), for each range of inhibitor concentrations, were fitted to a four parameter equation using Softmax data analysis software. The parameter C, derived from the resulting curve-fit, corresponded to the concentration for half maximal inhibition (IC50).
# T1 sequence (P00742 235-488 limits assumed): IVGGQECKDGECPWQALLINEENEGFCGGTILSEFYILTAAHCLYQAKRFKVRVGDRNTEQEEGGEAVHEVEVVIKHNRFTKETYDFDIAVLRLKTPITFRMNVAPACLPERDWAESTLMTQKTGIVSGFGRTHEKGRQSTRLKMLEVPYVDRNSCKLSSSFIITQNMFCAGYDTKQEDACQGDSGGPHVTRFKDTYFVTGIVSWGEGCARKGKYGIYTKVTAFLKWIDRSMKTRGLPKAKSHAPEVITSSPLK
# T1 sequence (P00742 41-179 partner limits assumed): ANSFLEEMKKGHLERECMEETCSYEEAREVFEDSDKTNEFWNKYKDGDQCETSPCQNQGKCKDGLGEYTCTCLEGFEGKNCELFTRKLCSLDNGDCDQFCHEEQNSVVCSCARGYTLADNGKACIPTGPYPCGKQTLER
row,IC50 [nM],Compound
1,≤ 100,"CN(C)C(=N)c1ccc(NC(=O)C(NC(=O)Nc2ccc(Cl)cc2)c2ccccc2)c(F)c1 (stereo not shown) [Example 33, N-[4-(dimethylaminoimino)-2-fluorophenyl]-2-phenyl-2-(4-chlorophenylaminocarbonylamino)-acetamide]"
2,≤ 100,"CCN(C)C(=N)c1ccc(NC(=O)C(NC(=O)Nc2ccc(Cl)cc2)c2ccccc2)c(F)c1 (stereo not shown) [Example 34, N-[4-(N-methyl-N-ethylaminoimino)-2-fluorophenyl]-2-phenyl-2-(4-chlorophenylaminocarbonylamino)-acetamide]"
3,≤ 100,"C=CCN(C)C(=N)c1ccc(NC(=O)C(NC(=O)Nc2ccc(Cl)cc2)c2ccccc2)c(F)c1 (stereo not shown) [Example 35, N-[4-(N-methyl-N-allylaminoimino)-2-fluorophenyl]-2-phenyl-2-(4-chlorophenylaminocarbonylamino)-acetamide]"
4,≤ 100,"C#CCN(C)C(=N)c1ccc(NC(=O)C(NC(=O)Nc2ccc(Cl)cc2)c2ccccc2)c(F)c1 (stereo not shown) [Example 36, N-[4-(N-methyl-N-propargylaminoimino)-2-fluorophenyl]-2-phenyl-2-(4-chlorophenylaminocarbonylamino)-acetamide]"
5,≤ 100,"CNC(=N)c1ccc(NC(=O)C(NC(=O)Nc2ccc(Cl)cc2)c2ccccc2)c(F)c1 (stereo not shown) [Example 37, N-(4-methylaminoimino-2-fluorophenyl)-2-phenyl-2-(4-chlorophenylamino-carbonylamino)-acetamide]"
6,≤ 100,"N=C(c1ccc(NC(=O)C(NC(=O)Nc2ccc(Cl)cc2)c2ccccc2)c(F)c1)N1CCCC1 (stereo not shown) [Example 38, N-[4-(pyrrolidin-1-ylimino)-2-fluorophenyl]-2-phenyl-2-(4-chlorophenylaminocarbonylamino)-acetamide]"
7,≤ 100,N=C(c1ccc(NC(=O)C(NC(=O)Nc2ccc(Cl)cc2)c2ccccc2)c(F)c1)N1CCC1 (stereo not shown) [Example 39]
8,≤ 100,"CN1CCN=C1c1ccc(NC(=O)C(NC(=O)Nc2ccc(Br)cc2)c2ccccc2F)cc1 (stereo not shown) [Example 40, N-[4-(1-methyl-4,5-dihydro-1H-imidazol-2-yl)phenyl]-2-(2-fluorophenyl)-2-(4-bromophenylaminocarbonylamino)-acetamide]"
9,≤ 100,N=C(c1ccc(NC(=O)C(NC(=O)Nc2ccc(Cl)cc2)c2ccccc2F)cc1)N1CCCC1 (stereo not shown) [Example 41]
10,≤ 100,N=C(c1ccc(NC(=O)C(NC(=O)Nc2ccc(Cl)cc2)c2ccccc2F)cc1)N1CCCCC1 (stereo not shown) [Example 42]
11,≤ 100,"CN(C)C(=N)c1ccc(NC(=O)C(NC(=O)Nc2ccc(Cl)cc2)c2ccccc2F)cc1 (stereo not shown) [Example 43, N-[4-(dimethylaminoimino)phenyl]-2-(2-fluorophenyl)-2-(4-chlorophenylaminocarbonylamino)-acetamide]"
12,≤ 100,N=C(c1ccc(NC(=O)C(NC(=O)Nc2ccc(Br)cc2)c2ccccc2F)cc1)N1CCCC1 (stereo not shown) [Example 44]
13,≤ 100,"N=C(c1ccc(NC(=O)C(NC(=O)Nc2ccc(Br)cc2)c2ccccc2F)cc1)N1CCCCC1 (stereo not shown) [Example 45, N-[4-(piperidin-1-ylimino)phenyl]-2-(2-fluorophenyl)-2-(4-bromophenylaminocarbonylamino)-acetamide]"
14,≤ 100,N=C(c1ccc(NC(=O)C(NC(=O)Nc2ccc(Cl)cc2)c2ccccc2F)c(F)c1)N1CCCC1 (stereo not shown) [Example 47]
15,100 to 500,"CN(C)NC(=N)c1ccc(NC(=O)C(NC(=O)Nc2ccc(Cl)cc2)c2ccccc2F)c(F)c1 (stereo not shown) [Example 48, N-[4-(2,2-dimethylhydrazinoimino)-2-fluorophenyl]-2-(2-fluorophenyl)-2-(4-chlorophenylaminocarbonylamino)-acetamide]"
16,100 to 500,"O=C(Nc1ccc(Cl)cc1)NC(C(=O)Nc1ccc(-c2ccncc2)cc1)c1ccccc1F (stereo not shown) [Example 49, N-[4-(pyridin-4-yl)phenyl]-2-(2-fluorophenyl)-2-(4-chlorophenylaminocarbonylamino)-acetamide]"
